Measured values from patent publication US9187458B2, “Cyanoquinoline derivatives” (Tianjin Hemay Bio-Tech Co., LTD., priority 2010, dated 2015).

Tests used:
Fadu cells = assay: Fadu Cell Growth Inhibition Test (MTT Assay); type: cell-based; details: Homo sapiens, 72 h incubation
Experimental: Fadu Cell Growth Inhibition Test (MTT Assay)
Cell strains: Fudu (human head and neck cancer cell strains);
Culture medium: 90% EMEM+10% FBS;
(§1) 1. A plate (10 cm) of cells in logarithmic growth phase normally cultured was collected;
(§2) 2. The culture solution was sucked out. The plate was washed with 5 ml of PBS 1-2 times;
(§3) 3. PBS was sucked out. 1.5 ml of 0.25% pancreatin was added to infiltrate the cells for 1 min;
(§4) 4. The pancreatin was sucked out. The culture plate was placed in an incubator. Digestion was carried out for about 5 min at 37° C.;
(§5) 5. 4.5 ml of complete culture solution was added to the culture plate to stop the digestion. The cells were carefully scoured with micropipette (1 ml) to give a uniform cell suspension. The suspension was implanted into a 96-well cell culture plate by 6000 cells/100 μl per well. The culture plate was incubated overnight under 5% CO2 at 37° C. In day 2, 100 μl of culture solution comprising a compound was added in each well, and further incubated for 72 h under 5% CO2 at 37° C.
(§6) 6. The culture solution was sucked out;
(§7) 7. 100 μl of serum-free culture solution containing 0.5 mg/ml MTT was added in each well, and incubated for 3 h;
(§8) 8. The culture solution was carefully sucked out;
(§9) 9. 100 μl of DMSO was added in each welland vibrated to dissolve;
(§10) 10. OD values were determined at 490 nM.
(§11) 1. Calculation of Relative Inhibition Ratio The inhibition ratio of a compound on cell growth=(PC−n)/(PC−NC)×100%
(§12) IC50: Concentration of a compound where inhibition ratio was 50%. IC50 values were fitted with Origin7.5.

SK-OV-3 cells = assay: SK-OV-3 Cell Growth Inhibition Test (MTT Assay); type: cell-based; details: Homo sapiens, 72 h incubation
Experimental: SK-OV-3 Cell Growth Inhibition Test (MTT Assay)
Cell strains: SK-OV-3 (human ovarian cancer cell strains);
Culture medium: 90% McCoy's 5A+10% FBS;
as §1, §2, §3, §4
as §5, with “stop the digestion.T the cells were” for “stop the digestion. The cells were”, “cell culture disc by 4000” for “cell culture plate by 6000”, “disc by 4000 cells/100 μl” for “plate by 6000 cells/100 μl”
as §6, §7, §8
(§13) 9. 100 μl of DMSO was added in each well and vibrated to dissolve;
as §10, §11, §12

AsPC-1 cells = assay: AsPC-1 Cell Growth Inhibition Test (MTT Assay); type: cell-based; details: Homo sapiens, ASPC1, 72 h incubation
Experimental: AsPC-1 Cell Growth Inhibition Test (MTT Assay)
Cell strains: AsPC-1 (human pancreatic cancer cell strains);
as §1, §2, §3
4. The pancreatin was sucked out. The culture plate was placed in an incubator. Digestion was carried out for about 7.5 min at 37° C.;
as §5, with “8000” for “6000”
as §6, §7, §8, §9, §10, §11, §12

CCRF-CEM/T cells = assay: CCRF-CEM/T Cell Growth Inhibition Test (MTT Assay); type: cell-based; details: Homo sapiens, CCRF-CEM/T cells (resistant to paclitaxel), 72 h incubation
Experimental: CCRF-CEM/T Cell Growth Inhibition Test (MTT Assay)
Cell strains: CCRF-CEM/T (human acute lymphocytic cell leukemia cells);
triple lysate solution: 10% SDS, 5% isobutanol, 0.012M HCl.
1. Cells were cultured to exponential phase. The cells were suspension cells;
2. The cells were collected by centrifuge. The resulting cells were resuspended in a complete culture medium to a desired concentration. The cells suspension was implanted into a 96-well cell culture plate by 20000 cells per well. A compound was added in the wellsuch that the final volume of the system was 120 μl. The system was further incubated for 72 h under 5% CO2 at 37° C.
7. 30 μl of serum-free culture solution containing 2.5 mg/ml MTT was added in each well, and incubated for 3 h;
8. 150 μl of triple lysate solution was added in each well and placed to dissolve at the room temperature;
9. OD values were determined at 570 nM.
as §11, §12

A549 cells = assay: A549 Cell Growth Inhibition Test (MTT Assay); type: cell-based; details: Homo sapiens, 72 h incubation
Experimental: A549 Cell Growth Inhibition Test (MTT Assay)
1. Cell strains: […] (human lung caner cell strains);
Culture medium: 90% F12K+10% FBS;
as §1
2. The culture solution was sucked out. Tthe plate was washed with 5 ml of PBS 1-2 times;
(§14) 3. PBS was sucked out. 2 ml of 0.25% pancreatin was added to infiltrate the cells for 1 min;
(§15) 4. The pancreatin was sucked out. The culture plate was placed in an incubator. Digestion was carried out for about 2 min at 37° C.;
as §5, with “4” for “4.5”, “2500” for “6000”
as §6, §7, §8, §13, §10, §11, §12

Sk-Br-3 cells = assay: Sk-Br-3 Cell Growth Inhibition Test (SRB Assay); type: cell-based; details: Homo sapiens, 91 h incubation
Experimental: Sk-Br-3 Cell Growth Inhibition Test (SRB Assay)
1. Cell strains: Sk-Br-3 (human breast cancer cell strains);
2. SRB: available from Sigmaaldrich, goods number: S9012, lot number: 047K3751. SRB was reserved at the room temperature. 0.4% (w/v) of working solution was formulated with 1% of glacial acetic acid. The solution was reserved at 4° C.; anti-tumor compounds; DMSO
Culture medium: 90% DMEM+10% FBS;
1. A plate (10 cm) of cells in logarithmic growth phase normally cultured was collected. The culture solution was sucked out. The plate was washed with 5 mL of PBS 1-2 times;
2. PBS was sucked out. […] of 0.25% pancreatin was added to infiltrate the cells for 30 s;
3. The pancreatin was sucked out. The culture plate was placed in an incubator. Digestion was carried out for about 1.5-2 min at 37° C.;
4. 4 mL of complete culture solution was added to the culture plate to stop the digestion. The cells were carefully scoured with micropipette (1 ml) to give a uniform single cell suspension;
5. Cell suspension was counted. The suspension was diluted to 1×10^5/ml. The resulting suspension was developed uniformly on a plate by 10000 cells/100 μl per well. The culture plate was incubated overnight under 5% CO2 at 37° C. In day 2, 100 μl of culture solution comprising a compound was added in each well, and further incubated for 91 h under 5% CO2 at 37° C.
6. The culture solution was sucked out. 100 uL of TCA fixed cells which were diluted to 10% were added to each well. The plate was kept in a refrigerator for 1 h at 4° C.
7. TCA stationary liquid was sucked out. Each well was washed with 150 μL of ddH2O five times;
8. After the stationary liquid was cleansed, the plate was dried in the air at the room temperature;
9. 60 μL of SRB staining solution was added in each well. The well was stained for 15 min at the room temperature;
10. The SRB staining solution was sucked out. Each well was washed with 150 μL of 1% glacial acetic acid five times;
11. After the SRB staining solution was cleansed, the plate was dried in the air at the room temperature;
12. 100 μL of 10 mM Tris was added in each well. The plate was vibrated to dissolve out SRB;
13. OD values were determined at 570 nM.
To: OD values of the starting content of cells when the cells were developed on a plate;
PC: OD values of cells after normal growth in control wells without a compound;
Ti: OD values of cells after growth in test wells with a compound;
NC: Background OD values of blank well without a compound and cells
Therefore: Ratio of cells in test wells to normal wells (% of control cell growth)=(Ti−To)/(PC−To)×100%
Ratio GI50 was concentration of a compound at the point of 50%.
Therefore: Ratio of killed cells to inoculated cells (% of killed cells)=(Ti−To)/(To−NC)×100%
LC50 was concentration point of a compound when half of the starting inoculated concentration was reached.
Concentration of a compound at this point is defined as TGI (total growth inhibition).

LoVo cells = assay: LoVo Cell Growth Inhibition Test (MTT Assay); type: cell-based; details: Homo sapiens, 72 h incubation
Experimental: LoVo Cell Growth Inhibition Test (MTT Assay)
1. Cell strains: LoVo (human intestinal cancer cell strains);
as §1, §2, §14
4. The pancreatin was sucked out. The culture plate was placed in an incubator. Digestion was carried out for about 4 min at 37° C.;
as §5, with “5. 4” for “5. 4.5”, “added in” for “added to”, “by 3000-4000” for “by 6000”, “added into” for “added in”
as §6
7. 100 μl of serum-free culture solution containing 0.5 mg/ml MTT was added in each well, and incubated for 4 h;
as §8, §13, §10, §11, §12

NCI-H460 cells = assay: NCI-H460 Cell Growth Inhibition Test (MTT Assay); type: cell-based; details: Homo sapiens, 72 h incubation
Experimental: NCI-H460 Cell Growth Inhibition Test (MTT Assay)
1. Cell strains: NCI-H460 (human large cell lung cancer cell strains);
as §1, §2, §14, §15
as §5, with “4” for “4.5”, “2500” for “6000”
as §6, §7, §8, §13, §10, §11, §12

Her2 kinase = target: T1, Her2 kinase (Homo sapiens, UniProt P04626); assay: Inhibition Activity Assay on Her2 Enzyme (ELISA, PGT substrate); type: biochemical; details: 8 min at 4° C., read-out: Inhibition Activity (EC50) on Her-2
T1 construct: purchased Cell Signaling Tech #7382
Experimental: Inhibition Activity Assay on Her2 Enzyme
1. Her2 kinase, Cell Signaling Tech, #7382, Lot. 2, reserved at −80° C.;
2. PBST: PBS+0.05% (v/v) Tween 20;
3. Confining liquid: 3% of BSA in PBS;
4. HEPEs buffer (2×): 50 mM HEPEs, 20 mM MgCl2, 0.1 mM MnCl2, 0.2 mM Na3VO4, adjusted to pH of 7.4 with NaOH;
5. PGT, Sigma, Cat#P0275): 2 mg/ml of stock solution was prepared by dissolving PBS, reserved at −20° C.
6. ATP: […] of stock solution was prepared by dissolving ddH2O, reserved at −20° C.;
7. Mice anti-phosphorylation tyrosine-HRP: Invitrogen-037720, 0.5 mg/ml, reserved at 4° C.;
8. TMB: Cell Signaling Tech, Cat #7004L;
9. DTT: 2.5 M of stock solution was prepared with ddH2O, reserved at −20° C. Before use, 2×HEPEs buffer was added in the solution to the final concentration of 1.25 mM.
1. 2 mg/ml of PGT was diluted with PBS to 0.2 mg/ml. 60 μl of the resulting solution was added in each well. The elisa plate was placed in a refrigerator at 4° C. and coated overnight;
2. The coating solution was discarded to stop the coating. The plate was washed four times with PBS, and then beaten to dryness;
3. The elisa plate was placed in a refrigerator at 4° C., drained out and stood for 3h.
4. […] of aqueous solution of each compound was diluted with ddH2O to a desirable concentration. Then, the solution was added in the corresponding elisa well by 25 μl/well;
5. 2 nM of ATP solution was diluted with ddH2O to 25 folds and then sufficiently mixed. The resulting solution was separately added in each elisa well by 25 μl per well (25 μl ddH2O was added in the negative control);
6. Her2 kinase was diluted with 2×TKB to 800 folds. The resulting solution was added in the elisa well by 50 μl per well. Then, the enzyme reaction began. Moreover, the elisa plate was immediately placed in a micro-oscillator. The reaction is carried out for 8 min at the temperature of 4° C.;
7. 2% of SDS was added in the elisa well to stop the reaction by adding 100 μl of SDS in each well. The solution was sufficiently mixed on the micro-oscillator to sufficiently mix for about 5 min;
8. The reaction solution was sucked out. The plate was washed four times with PBST. After the plate was beaten to dryness, 0.25 μg/ml of mice anti-phosphorylation tyrosine-HRP which was diluted with confining liquid was added in the plate by 100 μl per well, and then reacted for 30 min at the room temperature.
9. The antibody reaction solution was sucked out. The plate was washed six times with PBST. After the plate was beaten to dryness, TMB peroxidase substrate was added in the plate with 100 μl/well, and then reacted in the dark for 15 min at the room temperature;
10. 100 μl of 2N H2SO4 was added in the solution to stop the chromogenic reaction. After the bubbles were cleansed, the solution was measured in elisa at 450 nm.
OD values were converted in relative inhibition ratios according to following formula: Relative inhibition ratio=[1−(experiment values−NC mean values)/(PC mean values−NC mean values)]×100%

T1 sequence (P04626 676-1255 limits assumed): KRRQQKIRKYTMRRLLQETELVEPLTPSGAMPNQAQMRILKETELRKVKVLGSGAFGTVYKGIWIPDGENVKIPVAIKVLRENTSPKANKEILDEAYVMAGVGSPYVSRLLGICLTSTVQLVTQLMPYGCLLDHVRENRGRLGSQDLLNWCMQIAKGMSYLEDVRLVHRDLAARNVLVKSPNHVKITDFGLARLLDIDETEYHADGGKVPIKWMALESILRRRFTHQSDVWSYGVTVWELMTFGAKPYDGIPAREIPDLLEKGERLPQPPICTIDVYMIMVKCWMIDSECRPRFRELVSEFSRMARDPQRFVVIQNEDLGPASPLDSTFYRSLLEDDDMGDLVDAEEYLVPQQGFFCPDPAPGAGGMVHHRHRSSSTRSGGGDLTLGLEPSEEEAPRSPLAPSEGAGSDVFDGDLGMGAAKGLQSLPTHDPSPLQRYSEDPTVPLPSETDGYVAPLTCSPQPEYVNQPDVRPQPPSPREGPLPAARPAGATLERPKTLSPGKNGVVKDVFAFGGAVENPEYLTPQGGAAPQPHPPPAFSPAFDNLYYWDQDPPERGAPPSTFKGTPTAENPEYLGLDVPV

| Compound | IC50 (Fadu cells) [nM] | IC50 (SK-OV-3 cells) [nM] | IC50 (AsPC-1 cells) [nM] | IC50 (CCRF-CEM/T cells) [nM] | IC50 (A549 cells) [nM] | GI50 (Sk-Br-3 cells) [nM] | IC50 (LoVo cells) [nM] | IC50 (NCI-H460 cells) [nM] | EC50 (Her2 kinase) [nM] |
| --- | --- | --- | --- | --- | --- | --- | --- | --- | --- |
| CN(C)C/C=C/C(=O)Nc1cc2c(Nc3ccc(OCc4ccccn4)c(Cl)c3)c(C#N)cnc2cc1OC1CCOC1 (stereo not shown) [Example 2, (E)-N-(4-(3-CHLORO-4-(PYRIDIN-2-YL-METHOXY)PHENYLAMINO)-3-CYANO-7-(TETRAHYDROFURAN-3-YL-OXY)QUINOLIN-6-YL)-4-(DIMETHYLAMINO)-BUT-2-ENAMIDE] | 149 | 331 | 770 | 1800 |  |  |  |  |  |
| CN(C)C/C=C/C(=O)Nc1cc2c(Nc3ccc(OCc4ccc(C(C)(C)C)cc4)c(Cl)c3)c(C#N)cnc2cc1OC1CCOC1 (stereo not shown) [Example 14, (E)-N-(4-(4-(4-TERT-BUTYLBENZYLOXY)-3-CHLOROPHENYLAMINO)-3-CYANO-7-(TETRAHYDROFURAN-3-YL-OXY)QUINOLIN-6-YL)-4-(DIMETHYLAMINO)-BUT-2-ENAMIDE] |  |  | 1400 |  | 1500 | 924 | 1300 | 940 |  |
| N#Cc1cnc2cc(OC3CCOC3)c(NC(=O)C=C3CCNCC3)cc2c1Nc1ccc(F)c(Cl)c1 (stereo not shown) [Example 42, N-(4-(3-CHLORO-4-FLUOROPHENYLAMINO)-3-CYANO-7-(TETRAHYDROFURAN-3-YL-OXY)QUINOLIN-6-YL)-2-(PIPERIDIN-4-YLIDENE)ACETAMIDE] |  |  |  |  |  |  |  |  | 291 |
